Measurements from patent US12215173B2, “Kappa opioid receptor peptide amide ligands” (priority 2019, dated 2025).
Read-outs that look alike come from different tables or passages of the source.

How the values were obtained:
[1] = molecular target: Opioid Kappa Receptor (recombinant human, HEK293 cells) (Homo sapiens (Human), UniProt P41145); assay: cell-based; conditions: read-out: EC50
[2] = molecular target: recombinant human mu (MOR) opioid receptor (Homo sapiens (Human), UniProt P35372); assay: Opioid receptor radioligand binding assay, MOR
[3] = molecular target: recombinant human delta (DOR) opioid receptor (Homo sapiens (Human), UniProt P41143); assay: Opioid receptor radioligand binding assay, DOR
Sequence of recombinant human delta (DOR) opioid receptor (P41143 whole entry, looked up): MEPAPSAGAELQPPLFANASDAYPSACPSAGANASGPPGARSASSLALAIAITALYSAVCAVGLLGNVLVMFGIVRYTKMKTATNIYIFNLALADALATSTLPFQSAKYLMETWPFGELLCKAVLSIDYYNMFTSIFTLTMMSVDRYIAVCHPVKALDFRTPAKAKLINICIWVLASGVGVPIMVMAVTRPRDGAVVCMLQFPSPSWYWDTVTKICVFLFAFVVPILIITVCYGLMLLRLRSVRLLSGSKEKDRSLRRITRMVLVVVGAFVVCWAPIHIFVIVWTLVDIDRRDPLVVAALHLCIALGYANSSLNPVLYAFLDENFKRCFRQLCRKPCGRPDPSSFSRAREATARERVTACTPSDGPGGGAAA

[4] = molecular target: recombinant human kappa (KOR) opioid receptor (Homo sapiens (Human), UniProt P41145); assay: biochemical; assay type: binding; conditions: HEK293 cell membranes, 0.5 nM [3H]diprenorphine
[5] = HEK293 cell membranes, 0.5 nM [3H]DAMGO, read-out: MOR, IC50
[6] = HEK293 cell membranes, 0.5 nM [3H]DADLE, read-out: DOR, IC50

Row | SMILES | EC50 [1] [nM] | IC50 [2, 5] [nM] | IC50 [3, 6] [nM] | IC50 [4] [nM] | IC50 [2] [nM] | IC50 [3] [nM]
1 | COCCOCCNC(=O)[C@@H](CCCCN)NC(=O)[C@@H](CC(C)C)NC(=O)[C@@H](Cc1ccccc1)NC(=O)[C@H](N)Cc1ccccc1 [Compound 13-4] | 13.5 | > 10000 | > 10000 | 2.8 |  | 
2 | COCCOCCOCCNC(=O)[C@@H](CCCCN)NC(=O)[C@@H](CC(C)C)NC(=O)[C@@H](Cc1ccccc1)NC(=O)[C@H](N)Cc1ccccc1 [Compound 13-5] | 15.8 | > 10000 | > 10000 | 5.92 |  | 
3 | CC(C)C[C@@H](NC(=O)[C@@H](Cc1ccccc1)NC(=O)[C@H](N)Cc1ccccc1)C(=O)N[C@H](CCCCN)C(=O)NCc1cccnc1C(=O)O [Compound 13-7] | 24.7 |  |  | 11.4 | > 10000 | > 10000
4 | CC(C)C[C@@H](NC(=O)[C@@H](Cc1ccccc1)NC(=O)[C@H](N)Cc1ccccc1)C(=O)N[C@H](CCCCN)C(=O)NCc1ccnc(C(=O)O)c1 [Compound 13-8] | 14.7 | > 10000 | > 10000 | 6.04 |  | 
5 | CC(C)C[C@@H](NC(=O)[C@@H](Cc1ccccc1)NC(=O)[C@H](N)Cc1ccccc1)C(=O)N[C@H](CCCCN)C(=O)NCc1cc[nH]c(=O)c1 [Compound 13-9] | 18.1 | > 10000 | > 10000 | 0.41 |  | 
6 | CC(C)C[C@@H](NC(=O)[C@@H](Cc1ccccc1)NC(=O)[C@H](N)Cc1ccccc1)C(=O)N[C@H](CCCCN)C(=O)NCc1ccc(O)c(O)c1 [Compound 13-10] | 23.1 | > 10000 | > 10000 | 0.67 |  | 
7 | COC(=O)[C@@H](N)CNC(=O)[C@@H](CCCCN)NC(=O)[C@@H](CC(C)C)NC(=O)[C@@H](Cc1ccccc1)NC(=O)[C@H](N)Cc1ccccc1 [Compound 13-12] | 7.07 | > 10000 | > 10000 | 6.6 |  | 
8 | CC(C)C[C@@H](NC(=O)[C@@H](Cc1ccccc1)NC(=O)[C@H](N)Cc1ccccc1)C(=O)N[C@H](CCCCN)C(=O)NC[C@H](N)C(=O)O [Compound 13-13] | 88.4 | > 10000 | > 10000 | 16.1 |  | 
9 | CC(C)C[C@@H](NC(=O)[C@@H](Cc1ccccc1)NC(=O)[C@H](N)Cc1ccccc1)C(=O)N[C@H](CCCCN)C(=O)N1CCNC(=O)C1 [Compound 13-14] | 12.9 | > 10000 | > 10000 | 0.21 |  | 
10 | CC(C)C[C@@H](NC(=O)[C@@H](Cc1ccccc1)NC(=O)[C@H](N)Cc1ccccc1)C(=O)N[C@H](CCCCN)C(=O)N1CCOCCOCCOCC1 [Compound 13-15] | 51.5 | > 10000 | > 10000 | 0.41 |  | 
11 | CC(C)C[C@@H](NC(=O)[C@@H](Cc1ccccc1)NC(=O)[C@H](N)Cc1ccccc1)C(=O)N[C@H](CCCCN)C(=O)N1CCC(NC(=O)C(=O)N(C)C)CC1 [Compound 13-16] | 19.4 | 215 | 2410 | 0.37 |  | 
12 | CC(C)C[C@@H](NC(=O)[C@@H](Cc1ccccc1)NC(=O)[C@H](N)Cc1ccccc1)C(=O)N[C@H](CCCCN)C(=O)NC1CCN(C(=O)C(=O)N(C)C)CC1 [Compound 13-17] | 22 | > 10000 | > 10000 | 23.4 |  | 
13 | COC(=O)/C=C/C(=O)N1CCC(NC(=O)[C@@H](CCCCN)NC(=O)[C@@H](CC(C)C)NC(=O)[C@@H](Cc2ccccc2)NC(=O)[C@H](N)Cc2ccccc2)CC1 [Compound 13-18] | 39.3 | > 10000 | > 10000 | 2 |  | 
14 | COC(=O)/C=C/C(=O)NC1CCN(C(=O)[C@@H](CCCCN)NC(=O)[C@@H](CC(C)C)NC(=O)[C@@H](Cc2ccccc2)NC(=O)[C@H](N)Cc2ccccc2)CC1 [Compound 13-19] | 75.8 | > 727 | > 10000 | 0.33 |  | 
15 | CC(C)C[C@@H](NC(=O)[C@@H](Cc1ccccc1)NC(=O)[C@H](N)Cc1ccccc1)C(=O)N[C@H](CCCCN)C(=O)N1CCC(NC(=O)/C=C/C(=O)O)CC1 [Compound 13-20] | 18 | > 10000 | > 10000 | 1.44 |  | 
16 | CC(C)C[C@@H](NC(=O)[C@@H](Cc1ccccc1)NC(=O)[C@H](N)Cc1ccccc1)C(=O)N[C@H](CCCCN)C(=O)N1CCC(NC(=O)C(=O)NC2CC2)CC1 [Compound 13-22] | 24.8 | > 10000 | > 10000 | 0.096 |  | 
17 | CC(C)C[C@@H](NC(=O)[C@@H](Cc1ccccc1)NC(=O)[C@H](N)Cc1ccccc1)C(=O)N[C@H](CCCCN)C(=O)N1CCN(C(=O)C(=O)NC2CC2)CC1 [Compound 13-23] | 8.58 | 318 | > 10000 | 0.79 |  | 
18 | COC(=O)/C=C/C(=O)N1CCN(C(=O)[C@@H](CCCCN)NC(=O)[C@@H](CC(C)C)NC(=O)[C@@H](Cc2ccccc2)NC(=O)[C@H](N)Cc2ccccc2)CC1 [Compound 13-24] | 31.5 | 7990 | > 10000 | 0.52 |  | 
19 | CC(C)C[C@@H](NC(=O)[C@@H](Cc1ccccc1)NC(=O)[C@H](N)Cc1ccccc1)C(=O)N[C@H](CCCCN)C(=O)N1CCN(C(=O)C(=O)N(C)C)CC1 [Compound 13-26] | 10.2 | > 10000 | > 10000 | 1.83 |  | 
20 | CNC(=O)C(=O)N1CCN(C(=O)[C@@H](CCCCN)NC(=O)[C@@H](CC(C)C)NC(=O)[C@@H](Cc2ccccc2)NC(=O)[C@H](N)Cc2ccccc2)CC1 [Compound 13-27] | 12 | > 10000 | > 10000 | 0.53 |  | 
21 | CNC(=O)C(=O)NC1CCN(C(=O)[C@@H](CCCCN)NC(=O)[C@@H](CC(C)C)NC(=O)[C@@H](Cc2ccccc2)NC(=O)[C@H](N)Cc2ccccc2)CC1 [Compound 13-28] | 20.8 | > 10000 | > 10000 | 0.26 |  | 
22 | COC(=O)C(=O)NC1CCN(C(=O)[C@@H](CCCCN)NC(=O)[C@@H](CC(C)C)NC(=O)[C@@H](Cc2ccccc2)NC(=O)[C@H](N)Cc2ccccc2)CC1 [Compound 13-29] | 15.5 | 6.86 | > 10000 | 0.29 |  | 
23 | CC(C)C[C@@H](NC(=O)[C@@H](Cc1ccccc1)NC(=O)[C@H](N)Cc1ccccc1)C(=O)N[C@H](CCCCN)C(=O)N1CCC(NC(=O)C(=O)O)CC1 [Compound 13-30] | 4.77 | > 10000 | > 10000 | 0.15 |  | 
24 | CCOC(=O)C(=O)NC1CCN(C(=O)[C@@H](CCCCN)NC(=O)[C@@H](CC(C)C)NC(=O)[C@@H](Cc2ccccc2)NC(=O)[C@H](N)Cc2ccccc2)CC1 [Compound 13-31] | 17.9 | 172 | > 10000 | 0.28 |  | 
25 | CNC(=O)C(=O)N1CCC(NC(=O)[C@@H](CCCCN)NC(=O)[C@@H](CC(C)C)NC(=O)[C@@H](Cc2ccccc2)NC(=O)[C@H](N)Cc2ccccc2)CC1 [Compound 13-32] | 26.5 |  |  | 8.49 | 7110 | > 10000
26 | CC(C)C[C@@H](NC(=O)[C@@H](Cc1ccccc1)NC(=O)[C@H](N)Cc1ccccc1)C(=O)N[C@H](CCCCN)C(=O)NC1CCN(C(=O)C(N)=O)CC1 [Compound 13-34] | 20.2 | 2980 | > 10000 | 3.33 |  | 
